Test results reported in the supplement of paper PMC10331698.
± gives the standard deviation of the averaged measurements.

What was measured:
Experiment in all cases: level (log10 ratio to DMSO vehicle control); higher = higher biomarker level / cell amount than vehicle control
Details in all cases: in DMSO
Perfluorodecanoic acid = compound: O=C(O)C(F)(F)C(F)(F)C(F)(F)C(F)(F)C(F)(F)C(F)(F)C(F)(F)C(F)(F)C(F)(F)F [Perfluorodecanoic acid]
Description: (§1)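 BioMAP Diversity Plus panel of 12 human primary cell co-culture systems (3C, 4H, LPS, SAg, BT, BF4T, BE3C, CASM3C, HDF3CGF, KF3CT, MyoF, Mphg). Compounds were added 1 h before stimulation and left for 24 h (MyoF 48 h; BT 72 h for soluble read-outs or 6 d for IgG). Biomarkers were read by ELISA, cytotoxicity by SRB, PBMC viability and proliferation by Alamar Blue. Each well value was divided by the mean of 8 DMSO control wells on the same plate and log10 transformed; duplicate blinded samples were tested at 4 concentrations.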

[1] = compound: OCC(F)(F)OC(F)(F)C(F)(F)OC(F)(F)CO [1H,1H,8H,8H-Perfluoro-3,6-dioxaoctane-1,8-diol]
Description: as §1

Heptafluorobutyramide = compound: NC(=O)C(F)(F)C(F)(F)C(F)(F)F [Heptafluorobutyramide]
Description: as §1

[2] = compound: O=C(O)C(F)(F)OC(F)(F)C(F)(F)OC(F)(F)C(=O)O [Perfluoro-3,6-dioxaoctane-1,8-dioic acid]
Description: as §1

[3] = compound: CCN(CCO)S(=O)(=O)C(F)(F)C(F)(F)C(F)(F)C(F)(F)C(F)(F)C(F)(F)C(F)(F)C(F)(F)F [N-Ethyl-N-(2-hydroxyethyl)perfluorooctanesulfonamide]
Description: as §1

[4] = compound: COC(=O)CCC(F)(F)C(F)(F)C(F)(F)C(F)(F)F [Methyl 2H,2H,3H,3H-perfluoroheptanoate]
Description: as §1

Perfluoropentanoic acid = compound: O=C(O)C(F)(F)C(F)(F)C(F)(F)C(F)(F)F [Perfluoropentanoic acid]
Description: as §1

| Test System | level (log10) (Perfluorodecanoic acid; 6700 nM) | level (log10) (Perfluorodecanoic acid; 20000 nM) | level (log10) ([1]; 6700 nM) | level (log10) ([1]; 20000 nM) | level (log10) ([1]; 60000 nM) | level (log10) (Heptafluorobutyramide; 6700 nM) | level (log10) (Heptafluorobutyramide; 20000 nM) | level (log10) (Heptafluorobutyramide; 60000 nM) | level (log10) ([2]; 6700 nM) | level (log10) ([2]; 20000 nM) | level (log10) ([2]; 60000 nM) | level (log10) ([3]; 6700 nM) | level (log10) ([3]; 20000 nM) | level (log10) ([4]; 6700 nM) | level (log10) ([4]; 20000 nM) | level (log10) ([4]; 60000 nM) | level (log10) (Perfluoropentanoic acid; 6700 nM) | level (log10) (Perfluoropentanoic acid; 20000 nM) | level (log10) (Perfluoropentanoic acid; 60000 nM) |
| --- | --- | --- | --- | --- | --- | --- | --- | --- | --- | --- | --- | --- | --- | --- | --- | --- | --- | --- | --- |
| 3C:SRB | 0.0095 ± 0.0021 | -0.005 ± 0.0042 | -0.01 ± 0.0085 | -0.0105 ± 0.0021 | -0.0255 ± 0.0021 | -0.0235 ± 0.04 | -0.0095 ± 0.0078 | -0.007 ± 0.024 | 0.0055 ± 0.0064 | -0.0055 ± 0.016 | -0.004 ± 0.0014 | -0.0815 ± 0.021 | -0.217 ± 0.011 | 0.0125 ± 0.036 | 0.0085 ± 0.028 | -0.004 ± 0.016 | -0.0115 ± 0.013 | 0.001 ± 0.014 | 0.007 ± 0.018 |
| BF4T:MMP-1 | -0.0015 ± 0.0035 | -0.201 ± 0.011 | 0.0115 ± 0.022 | 0.013 ± 0.028 | 0.0135 ± 0.026 | 0.0065 ± 0.025 | 0.003 ± 0.031 | 0.003 ± 0.0071 | 0.0075 ± 0.0064 | 0.007 ± 0.027 | 0.0185 ± 0.032 | 0.015 | 0.0095 ± 0.0078 | 0.0015 ± 0.013 | -0.007 ± 0.0028 | 0.014 ± 0.021 | 0 ± 0.014 | -0.005 ± 0.0057 | 0.0085 ± 0.0092 |
| BF4T:MMP-3 | 0.0215 ± 0.023 | -0.14 ± 0.075 | -0.01 ± 0.045 | -0.0285 ± 0.057 | -0.0095 ± 0.037 | 0.0075 ± 0.0021 | -0.005 ± 0.02 | 0.0065 ± 0.012 | -0.001 ± 0.0028 | -0.004 ± 0.0028 | 0.031 ± 0.025 | -0.0145 ± 0.025 | 0.0505 ± 0.023 | -0.0135 ± 0.015 | -0.021 ± 0.03 | -0.0185 ± 0.0035 | -0.015 ± 0.011 | -0.0145 ± 0.0092 | -0.0045 ± 0.04 |
| 3C:CD87/uPAR | 0.011 ± 0.02 | -0.01 ± 0.02 | -0.0025 ± 0.015 | 0.019 ± 0.018 | 0.0015 ± 0.0078 | -0.014 ± 0.082 | -0.0435 ± 0.07 | -0.0375 ± 0.066 | 0.016 ± 0.044 | -0.013 ± 0.013 | 0.0195 ± 0.011 | -0.047 ± 0.027 | -0.124 ± 0.046 | -0.028 ± 0.047 | -0.022 ± 0.072 | 0.0015 ± 0.077 | -0.003 ± 0.021 | -0.0045 ± 0.021 | -0.0105 ± 0.015 |
| LPS:sPGE2 | -0.017 ± 0.025 | -0.052 ± 0.0071 | -0.0235 ± 0.019 | -0.023 ± 0.045 | -0.0195 ± 0.00071 | -0.0305 ± 0.057 | 0.011 ± 0.0042 | -0.004 ± 0.0071 | -0.0045 ± 0.013 | -0.006 ± 0.011 | 0.0045 ± 0.0078 | -0.023 ± 0.023 | 0.07 ± 0.0042 | 0.014 ± 0.033 | 0.0395 ± 0.0078 | -0.0125 ± 0.04 | -0.008 ± 0.11 | -0.018 ± 0.0028 | 0.017 ± 0.011 |
| 3C:CXCL8/IL-8 | 0.009 ± 0.013 | 0.0155 ± 0.021 | 0.013 ± 0.014 | 0.014 ± 0.04 | 0.021 ± 0.081 | 0.008 ± 0.0071 | -0.0035 ± 0.016 | 0.0105 ± 0.011 | -0.015 ± 0.051 | -0.013 ± 0.034 | -0.007 ± 0.059 | 0.02 ± 0.044 | -0.0985 ± 0.1 | -0.021 ± 0.023 | -0.0045 ± 0.021 | 0.012 ± 0.03 | -0.0065 ± 0.0092 | -0.005 ± 0.027 | 0.03 ± 0.079 |
| BF4T:Keratin 8/18 | 0.011 ± 0.0028 | -0.335 ± 0.042 | 0.004 ± 0.0085 | -0.0075 ± 0.018 | 0.0205 ± 0.00071 | -0.0015 ± 0.03 | 0.0065 ± 0.026 | 0.0055 ± 0.057 | -0.0075 ± 0.022 | -0.008 ± 0.0014 | 0.0025 ± 0.019 | -0.002 ± 0.0014 | -0.0005 ± 0.0021 | 0.007 ± 0.033 | 0.0285 ± 0.033 | 0.0225 ± 0.011 | 0.0055 ± 0.0064 | -0.002 ± 0.0085 | 0.0055 ± 0.03 |
